Data as given in patent US20160008243A1, “METHOD OF TREATING HAIR” (priority 2013, published 2016).

Test: Hair switch straightening test (switch volume after treatment, rinsing, combing and drying)
Description: Dark brown European wavy#6 switches of length 25 cm and weight 2 gms, were dosed with 2 ml each of different levels of trans aconitic acid solutions. They were combed straight and left to develop for at least 20 minutes. They were subsequently rinsed for 30 seconds under the tap. They were then combed straight and left to dry overnight. When dry the switches were combed straight and pictures taken. All switches looked straight without the waviness of the pre-treated switches. […] (Here volume refers to the projection of the switch image on to the screen and is given in mm^2).

[1] = 5% solution at pH 2, 2 ml per 2 g switch, at least 20 min, rinsed, dried overnight

O=C(O)/C=C(\CC(=O)O)C(=O)O [trans Aconitic acid, trans aconitic acid]
% benefit over water (0.5% solution at pH 2): 15.4% | Volume in mm^2 (projection of the switch image on to the screen) (0.5% solution at pH 2): 12073 mm^2 | % benefit over water (1% solution at pH 2): 20.4% | Volume in mm^2 (projection of the switch image on to the screen) (1% solution at pH 2): 11363 mm^2 | % benefit over water (2.5% solution at pH 2): 24.6% | Volume in mm^2 (projection of the switch image on to the screen) (2.5% solution at pH 2): 10763 mm^2 | % benefit over water (5% solution at pH 2): 40.8% | Volume in mm^2 (projection of the switch image on to the screen) [1]: 8456 mm^2 | % benefit over water (5% solution at pH 3): 17.3% | Volume in mm^2 (projection of the switch image on to the screen) (5% solution at pH 3): 11812 mm^2 | Hair straightening benefit (in words) (applied to hair, conclusion from the table): gives hair straightening benefits

O=C(O)CC(O)(CC(=O)O)C(=O)O [Citric acid, reference compound]
% benefit over water (5% solution at pH 2): 33.6% | Volume in mm^2 (projection of the switch image on to the screen) [1]: 9481 mm^2
